In patent US4923975A, “Valiolamine derivatives and production thereof” (Takeda Chemical Industries, Ltd., priority 1985, dated 1990):

How the values were obtained:
α-glucosidase [1] = details: in words; valiolamine and N-substituted valiolamine derivatives (European Patent Publication No. 56194 and 89812); cited from earlier work
α-glucosidase [2] = test: α-glucosidase-inhibiting activity (stated in words); assay type: biochemical; details: VA-G and VM-G
Solubility in solvents = assay type: physicochemical; details: for solubility in water: in words, for isolation and purification
[3] = test system: sheath blight of the rice plant; test: activity against the sheath blight of the rice plant (stated in words); details: VA-G and VM-G
[4] = molecular target: T1, sucrase from porcine small intestine (Sus scrofa, UniProt P56729); test: inhibition of sucrase from porcine small intestine (substrate 50 mM sucrose); assay type: biochemical; details: read-out: IC50 (molarity required for 50% inhibition of the enzymatic activity) against sucrase
T1 construct: sucrase from porcine small intestine; from tissue; host or cells: porcine small intestine
T1 sequence (P56729 with tags, fused parts or gaps limits assumed): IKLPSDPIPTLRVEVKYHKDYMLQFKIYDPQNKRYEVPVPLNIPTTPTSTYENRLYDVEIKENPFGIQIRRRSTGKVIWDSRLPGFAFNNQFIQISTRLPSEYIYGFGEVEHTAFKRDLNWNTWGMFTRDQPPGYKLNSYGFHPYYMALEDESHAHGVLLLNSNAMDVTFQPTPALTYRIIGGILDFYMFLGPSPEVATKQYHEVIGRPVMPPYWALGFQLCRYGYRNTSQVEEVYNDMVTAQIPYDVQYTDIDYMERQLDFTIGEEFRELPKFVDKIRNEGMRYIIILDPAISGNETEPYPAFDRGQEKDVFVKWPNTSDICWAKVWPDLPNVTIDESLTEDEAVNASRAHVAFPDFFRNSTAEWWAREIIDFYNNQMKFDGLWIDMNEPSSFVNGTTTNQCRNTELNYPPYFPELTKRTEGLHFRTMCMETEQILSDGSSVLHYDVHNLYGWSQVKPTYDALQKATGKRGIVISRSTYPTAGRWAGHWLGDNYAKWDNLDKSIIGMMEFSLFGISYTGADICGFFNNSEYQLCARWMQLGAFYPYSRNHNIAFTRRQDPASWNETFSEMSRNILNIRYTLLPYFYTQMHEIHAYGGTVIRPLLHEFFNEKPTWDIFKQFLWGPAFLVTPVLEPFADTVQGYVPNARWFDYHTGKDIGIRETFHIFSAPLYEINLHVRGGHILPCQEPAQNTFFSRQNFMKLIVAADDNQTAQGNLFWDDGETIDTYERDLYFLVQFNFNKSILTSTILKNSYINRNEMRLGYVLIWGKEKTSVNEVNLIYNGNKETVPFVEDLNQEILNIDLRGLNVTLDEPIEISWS
T1 sequence (P56729 with tags, fused parts or gaps partner limits assumed): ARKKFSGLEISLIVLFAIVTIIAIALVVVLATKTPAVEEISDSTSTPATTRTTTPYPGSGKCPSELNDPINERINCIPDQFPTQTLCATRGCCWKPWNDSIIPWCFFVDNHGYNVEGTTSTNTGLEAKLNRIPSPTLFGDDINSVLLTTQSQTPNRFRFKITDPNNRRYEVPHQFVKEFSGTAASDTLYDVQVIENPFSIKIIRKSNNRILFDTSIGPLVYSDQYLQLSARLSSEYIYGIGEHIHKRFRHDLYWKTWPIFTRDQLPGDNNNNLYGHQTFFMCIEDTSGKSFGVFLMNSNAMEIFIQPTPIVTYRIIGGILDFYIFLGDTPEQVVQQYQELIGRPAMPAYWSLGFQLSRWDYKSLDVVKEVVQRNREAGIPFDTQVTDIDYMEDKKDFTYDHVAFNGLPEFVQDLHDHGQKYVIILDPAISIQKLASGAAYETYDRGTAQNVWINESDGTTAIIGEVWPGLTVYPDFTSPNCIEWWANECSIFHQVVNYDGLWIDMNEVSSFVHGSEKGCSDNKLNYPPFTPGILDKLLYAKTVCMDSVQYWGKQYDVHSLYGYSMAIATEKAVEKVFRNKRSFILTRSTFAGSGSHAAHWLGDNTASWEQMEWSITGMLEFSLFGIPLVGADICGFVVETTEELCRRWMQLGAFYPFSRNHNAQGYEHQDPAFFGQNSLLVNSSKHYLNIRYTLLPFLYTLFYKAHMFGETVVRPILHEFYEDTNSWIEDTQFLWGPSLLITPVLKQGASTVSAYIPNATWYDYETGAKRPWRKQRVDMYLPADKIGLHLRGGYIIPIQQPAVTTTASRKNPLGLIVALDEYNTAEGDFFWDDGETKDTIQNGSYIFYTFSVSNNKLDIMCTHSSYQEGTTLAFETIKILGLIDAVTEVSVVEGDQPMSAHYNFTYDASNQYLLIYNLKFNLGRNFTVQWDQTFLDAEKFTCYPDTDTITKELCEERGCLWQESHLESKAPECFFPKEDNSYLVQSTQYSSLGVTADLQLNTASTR

Rhizoctonia solanii = test: minimum concentration causing the abnormal branching at the tops of hypha of Rhizoctonia solanii; assay type: cell-based; details: method: J. Antibiotics 24,114-118 (1971)
Description: For example, the minimum concentration causing the abnormal branching at the tops of hypha of Rhizoctonia solanii [See J. Antibiotics 24,114-118 (1971)}was 0.5 μg/mL for VM-G and 2.5 μg/mL for VA-G.

[5] = in ethanol, ethyl acetate, chloroform, and acetone
[6] = in water, dimethylsulfoxide, and methanol

Compound	α-glucosidase-inhibitory action (α-glucosidase [1])	other results
OC[C@@]1(O)C[C@H](NCCc2ccccc2)[C@H](O)[C@@H](O)[C@@H]1O [(1), N-phenethylvaliolamine]	potent α-glucosidase-inhibitory action	
OC[C@@]1(O)C[C@H](NCC=Cc2ccccc2)[C@H](O)[C@@H](O)[C@@H]1O [(2), N-(3-phenylallyl)valiolamine]	potent α-glucosidase-inhibitory action	
OC[C@@]1(O)C[C@H](NCc2ccco2)[C@H](O)[C@@H](O)[C@@H]1O [(3), N-furfurylvaliolamine]	potent α-glucosidase-inhibitory action	
OC[C@@]1(O)C[C@H](NCc2cccs2)[C@H](O)[C@@H](O)[C@@H]1O [(4), N-thenylvaliolamine]	potent α-glucosidase-inhibitory action	
OC[C@@]1(O)C[C@H](NCc2cccnc2)[C@H](O)[C@@H](O)[C@@H]1O [(5), N-(3-pyridylmethyl)valiolamine]	potent α-glucosidase-inhibitory action	
OC[C@@]1(O)C[C@H](NCc2ccc(Br)cc2)[C@H](O)[C@@H](O)[C@@H]1O [(6), N-(4-bromobenzyl)valiolamine]	potent α-glucosidase-inhibitory action	
OC[C@@]1(O)C[C@H](NC[C@H](O)c2ccccc2)[C@H](O)[C@@H](O)[C@@H]1O [(7), N-[(R)-β-hydroxyphenethyl]valiolamine]	potent α-glucosidase-inhibitory action	
OC[C@@]1(O)C[C@H](NC[C@@H](O)c2ccccc2)[C@H](O)[C@@H](O)[C@@H]1O [(8), N-[(S)-β-hydroxyphenethyl]valiolamine]	potent α-glucosidase-inhibitory action	
COc1ccccc1C(O)CN[C@H]1C[C@](O)(CO)[C@@H](O)[C@H](O)[C@H]1O (stereo partly drawn) [(9), N-(β-hydroxy-2-methoxyphenethyl)valiolamine]	potent α-glucosidase-inhibitory action	
CC(C)(C)c1cc(CN[C@H]2C[C@](O)(CO)[C@@H](O)[C@H](O)[C@H]2O)cc(C(C)(C)C)c1O [(10), N-(3,5-di-tert-butyl-4-hydroxybenzyl)valiolamine]	potent α-glucosidase-inhibitory action	
OC[C@@]1(O)C[C@H](NCC2CCCCC2)[C@H](O)[C@@H](O)[C@@H]1O [(11), N-(cyclohexylmethyl)valiolamine]	potent α-glucosidase-inhibitory action	
CC(C)=CCC/C(C)=C/CN[C@H]1C[C@](O)(CO)[C@@H](O)[C@H](O)[C@H]1O [(12), N-geranylvaliolamine]	potent α-glucosidase-inhibitory action	
OCC(CO)N[C@H]1C[C@](O)(CO)[C@@H](O)[C@H](O)[C@H]1O [(13), N-(1,3-dihydroxy-2-propyl)valiolamine]	potent α-glucosidase-inhibitory action	
OCC(N[C@H]1C[C@](O)(CO)[C@@H](O)[C@H](O)[C@H]1O)C(O)c1ccccc1 (stereo partly shown) [(14), N-(1,3-dihydroxy-1-phenyl-2-propyl)valiolamine]	potent α-glucosidase-inhibitory action	
OC[C@H](N[C@H]1C[C@](O)(CO)[C@@H](O)[C@H](O)[C@H]1O)c1ccccc1 [(15), N-[(R)-o-(hydroxymethyl)benzyl]valiolamine]	potent α-glucosidase-inhibitory action	
OC[C@@]1(O)C[C@H](NC2CCCCC2)[C@H](O)[C@@H](O)[C@@H]1O [(16), N-cyclohexylvaliolamine]	potent α-glucosidase-inhibitory action	

Compound	α-glucosidase-inhibitory action (α-glucosidase [1])	other results
OC[C@@]1(O)C[C@H](NC2CCCCC2O)[C@H](O)[C@@H](O)[C@@H]1O (stereo partly shown) [(17), N-(2-hydroxycyclohexyl)valiolamine]	potent α-glucosidase-inhibitory action	
OC[C@@]1(O)C[C@H](N[C@@H]2CCCC[C@H]2O)[C@H](O)[C@@H](O)[C@@H]1O [(18), N-[(1R,2R)-2-hydroxycyclohexyl]valiolamine]	potent α-glucosidase-inhibitory action	
OC[C@@]1(O)C[C@H](NC2CCCC2O)[C@H](O)[C@@H](O)[C@@H]1O (stereo partly shown) [(19), N-(2-hydroxycyclopentyl)valiolamine]	potent α-glucosidase-inhibitory action	
CO[C@H]1O[C@H](C)[C@@H](N[C@H]2C[C@](O)(CO)[C@@H](O)[C@H](O)[C@H]2O)[C@H](O)[C@H]1O [(20), Methyl 4-[(1S,2S)-(2,4,5(OH)/3,5)-2,3,4,5-tetrahydroxy-5-(hydroxymethyl)cyclohexyl]amino-4,6-dideoxy-α-D-glucopyranoside]	potent α-glucosidase-inhibitory action	
N[C@H]1C[C@H](CO)[C@@H](N[C@H]2C[C@](O)(CO)[C@@H](O)[C@H](O)[C@H]2O)[C@H](O)[C@H]1O [(22), [(1S,2S)-(2,4,5(OH)/3,5)-2,3,4,5-tetrahydroxy-5-(hydroxymethyl)cyclohexyl][(1R,2S)-(2,6/3,4)-4-amino-2,3-dihydroxy-6-(hydroxymethyl)cyclohexyl]-amine]	potent α-glucosidase-inhibitory action	
OC[C@H]1C[C@@H](N[C@H]2C[C@](O)(CO)[C@@H](O)[C@H](O)[C@H]2O)[C@H](O)[C@@H](O)[C@@H]1O [(23), N-[(1R,2S)-(2,4/3,5)-2,3,4-trihydroxy-5-(hydroxymethyl)cyclohexyl]valiolamine]	potent α-glucosidase-inhibitory action	
C[C@H]1C[C@H](N)[C@H](O)[C@@H](O)[C@@H]1N[C@H]1C[C@](O)(CO)[C@@H](O)[C@H](O)[C@H]1O [(24), N-[(1R,2S)-(2,6/3,4)-4-amino-2,3-dihydroxy-6-methylcyclohexyl]valiolamine]	potent α-glucosidase-inhibitory action	
C[C@H]1C[C@H](O)[C@H](O)[C@@H](O)[C@@H]1N[C@H]1C[C@](O)(CO)[C@@H](O)[C@H](O)[C@H]1O [(25), N-[(1R,2S)-(2,6/3,4)-2,3,4-trihydroxy-6-methylcyclohexyl]valiolamine]	potent α-glucosidase-inhibitory action	
C[C@H]1C[C@@H](O)[C@H](O)[C@@H](O)[C@@H]1N[C@H]1C[C@](O)(CO)[C@@H](O)[C@H](O)[C@H]1O [(26), N-[(1R,2S)-(2,4,6/3)-2,3,4-trihydroxy-6-methylcyclohexyl]valiolamine]	potent α-glucosidase-inhibitory action	
C[C@H]1O[C@H](O[C@H]2[C@H](O)[C@@H](O)C(O)O[C@@H]2CO)[C@H](O)[C@@H](O)[C@@H]1N[C@H]1C[C@](O)(CO)[C@@H](O)[C@H](O)[C@H]1O (stereo partly drawn) [(27), 4-O-α-[4-[[(1S)-(1,2,4,5(OH)/3,5)-2,3,4,5-tetrahydroxy-5-(hydroxymethyl)cyclohexyl]amino]-4,6-dideoxy-D-glucopyranosyl]-D-glucopyranose]	potent α-glucosidase-inhibitory action	
C[C@H]1O[C@H](O[C@H]2[C@H](O)[C@@H](O)[C@@H]3OC[C@H]2O3)[C@H](O)[C@@H](O)[C@@H]1N[C@H]1C[C@](O)(CO)[C@@H](O)[C@H](O)[C@H]1O [(28)]	potent α-glucosidase-inhibitory action	
OCC1=C[C@H](N[C@H]2C[C@](O)(CO)[C@@H](O)[C@H](O)[C@H]2O)[C@H](O)[C@@H](O)[C@@H]1O [VA-G, validoxylamine G]		α-glucosidase-inhibiting activity (α-glucosidase [2]): α-glucosidase-inhibiting activity; Solubility in solvents (Solubility in solvents; [5]): Slightly soluble or insoluble; Solubility in solvents (Solubility in solvents; [6]): Soluble; solubility in water (Solubility in solvents): water-soluble basic substances; activity against the sheath blight of the rice plant [3]: an activity against the sheath blight of the rice plant; IC50 [4]: 8.8 µM; minimal effective concentration (Rhizoctonia solanii): 2.5 µg/mL
OCC1=C[C@H](N[C@H]2C[C@](O)(CO)[C@@H](O[C@@H]3O[C@H](CO)[C@@H](O)[C@H](O)[C@H]3O)[C@H](O)[C@H]2O)[C@H](O)[C@@H](O)[C@@H]1O [VM-G, validamycin G]		α-glucosidase-inhibiting activity (α-glucosidase [2]): α-glucosidase-inhibiting activity; Solubility in solvents (Solubility in solvents; [5]): Slightly soluble or insoluble; Solubility in solvents (Solubility in solvents; [6]): Soluble; solubility in water (Solubility in solvents): water-soluble basic substances; activity against the sheath blight of the rice plant [3]: an activity against the sheath blight of the rice plant; IC50 [4]: 110 µM; minimal effective concentration (Rhizoctonia solanii): 0.5 µg/mL
N[C@H]1C[C@](O)(CO)[C@@H](O)[C@H](O)[C@H]1O [Valiolamine, valiolamine]	potent α-glucosidase-inhibitor	
Methyl 4-[(1S,2S)-(2,4,5(OH)/3,5)-2,3,4,5-deoxy-α-D-glucopyranoside [(21)]	potent α-glucosidase-inhibitory action	
